Columns and labels:
Format in all cases: in vivo, human
resistance-trained males [1] = test: Body composition (weight, lean body mass, fat) by dual x-ray absorptiometry, 12-week resistance training study
resistance-trained males [2] = test: Skeletal muscle hypertrophy: ultrasonography muscle thickness of quadriceps (VL and VI); settings: for 12-week increases in quadriceps thicknesses: 12 weeks
creatine kinase (CK) = test: Serum creatine kinase (muscle damage), colorimetric; settings: for effect on training-induced increase in CK: compared with placebo, initiation of training and overreaching cycle; for CK: Mean ± SEM
Method: (§1) Prior to the study, participants were randomly assigned to receive either 3 g per day of HMB Free Acid (HMB) (combined with food-grade orange flavors and sweeteners), 400 mg per day of ATP (PEAK ATP®; TSI, Inc.), a combination of both 3 g of HMB and 400 mg per day of ATP, or a placebo (food-grade orange flavors and sweeteners) divided equally into three servings daily with the first serving given 30 minutes prior to exercise and the remaining two servings daily with the mid-day and evening meals. On the non-training days participants were instructed to consume one serving with each of three separate meals. The supplementation was continued daily throughout the training and testing protocols. Each serving was formulated with 1 gram of HMB free acid to account for fill and emptying variation and achieve a minimum effective dosage of 0.800 grams. This dosage would be equivalent to a 1 gram Ca-HMB dosage.
(§2) All blood draws throughout the study were obtained via venipuncture after a 12-hour fast by a trained phlebotomist. Whole blood was collected and transferred into appropriate tubes for obtaining serum and plasma and centrifuged at 1,500 g for 15 min at 4° C. Resulting serum and plasma were then aliquoted and stored at −80° C. until subsequent analyses.
(§3) Samples were thawed one time and analyzed in duplicate for each analyte. All blood draws were scheduled at the same time of day to negate confounding influences of diurnal hormonal variations. Serum total and free testosterone, cortisol, and C-reactive protein (CRP) were assayed via ELISA kits obtained from Diagnostic Systems Laboratories (Webster, Tex.). All hormones were measured in the same assay on the same day to avoid compounded interassay variance. […] Serum creatine kinase (CK) was measured using colorimetric procedures at 340 nm (Diagnostics Chemicals, Oxford, Conn.). Twenty-four hour urine collections were made and 3-methylhistine was determined by previously described methods (Rathmacher et al 1992 and Wilson et al, 2013).

urinary 3-MH:Cr ratio = test: 24 h urinary 3-methylhistidine:creatinine ratio (muscle protein degradation); settings: Mean ± SEM
Method: as §1, §3
The rate of muscle protein degradation was evaluated by measuring urinary 3-MH:Cr ratio (Table 6).

free testosterone = test: Serum free testosterone ELISA; settings: for effect on free testosterone: main effect; for Free Testosterone: Mean ± SEM
Method: as §1, §2, §3

total testosterone = test: Serum total testosterone ELISA; settings: for effect on total testosterone: main effect; for Total Testosterone: Mean ± SEM
Method: as §1, §2, §3

resistance-trained males [3] = test: Perceived Recovery Status (PRS) scale; settings: for effect on PRS: 12-week study, vs placebo; for PRS (perceived recovery score): scale of 0-10, Mean ± SEM
Method: as §1
[…] The PRS scale consists of values between 0-10, with 0-2 being very poorly recovered and with anticipated declines in performance, 4-6 being low to moderately recovered and expected similar performance, and 8-10 representing high perceived recovery with expected increases in performance.

resistance-trained males [4] = test: Wingate test peak power (maximal cycling); settings: for Wingate PP gains in power from baseline: after the first week of the increased training (overreaching); for Wingate PP decrease: during the 2-week overreaching cycle
Method: Muscle power was assessed during maximal cycling (Wingate Test) and jumping movements. During the cycling test, volunteers were instructed to cycle against a predetermined resistance (7.5% of body weight) as fast as possible for 10 seconds (36). The saddle height was adjusted to the individual's height to produce a 5-10° knee flexion while the foot was in the low position of the central void. A standardized verbal stimulus was provided to each participant. Power output was recorded in real time during the 10-second sprint test, by a computer connected to the standard cycle ergometer (Monark model 894e, Vansbro, Sweden). Peak power (PP) was recorded using Monark Anaerobic Wingate Software, Version 1.0 (Monark, Vansbro, Sweden). The ICC of muscle peak power was 0.96. Prior to the study, participants were randomly assigned to receive either 3 g per day of HMB Free Acid (HMB) (combined with food-grade orange flavors and sweeteners), 400 mg per day of ATP (PEAK ATP®; TSI, Inc.), a combination of both 3 g of HMB and 400 mg per day of ATP, or a placebo (food-grade orange flavors and sweeteners) divided equally into three servings daily with the first serving given 30 minutes prior to exercise and the remaining two servings daily with the mid-day and evening meals. On the non-training days participants were instructed to consume one serving with each of three separate meals. The supplementation was continued daily throughout the training and testing protocols. […] This dosage would be equivalent to a 1 gram Ca-HMB dosage. All participants performed a high volume resistance training protocol during the 12-week study. The phases of the study and measurements taken are shown in FIG. 1, and the exercise protocols for each phase of the study are shown in Tables 1 to 3. The training was divided into 3 phases, with Phase 1 consisting of daily undulating periodization (weeks 1 to 8), Phase 2 consisting of the overreaching cycle (weeks 9 and 10), and Phase 3 consisting of the taper cycle (weeks 11 and 12).

CC(C)(O)CC(=O)O [HMB-FA, β-hydroxy-β-methylbutyric acid]
Lean body mass increase (resistance-trained males [1]; 12-week study): 7.4 ± 0.4 kg
fat percentage decrease (resistance-trained males [1]; 12-week study): 7.0±0.6%
DXA Fat (resistance-trained males [1]; week 0 (baseline)): 20.4 ± 1.4%
DXA LBM (resistance-trained males [1]; week 0 (baseline)): 66.2 ± 2.6 kg
Weight (resistance-trained males [1]; week 0 (baseline)): 83.1 ± 2.8 kg
DXA Fat (resistance-trained males [1]; week 4): 17.6 ± 1.4%
DXA LBM (resistance-trained males [1]; week 4): 69.2 ± 2.7 kg
Weight (resistance-trained males [1]; week 4): 83.9 ± 2.8 kg
DXA Fat (resistance-trained males [1]; week 8): 15.9 ± 1.5 %
DXA LBM (resistance-trained males [1]; week 8): 71.3 ± 2.7 kg
Weight (resistance-trained males [1]; week 8): 84.8 ± 2.9 kg
DXA Fat (resistance-trained males [1]; week 12): 13.5 ± 1.5 %
DXA LBM (resistance-trained males [1]; week 12): 73.5 ± 2.7 kg
Weight (resistance-trained males [1]; week 12): 85.0 ± 3.0 kg
12-week increases in quadriceps thicknesses (resistance-trained males [2]): 7.1±1.2 mm
Quad (quadriceps muscle thickness) (resistance-trained males [2]; week 0 (baseline)): 50.7 ± 1.5 mm
Quad (quadriceps muscle thickness) (resistance-trained males [2]; week 4): 53.6 ± 1.4 mm
Quad (quadriceps muscle thickness) (resistance-trained males [2]; week 8): 56.0 ± 1.4 mm
Quad (quadriceps muscle thickness) (resistance-trained males [2]; week 12): 57.8 ± 1.6 mm
effect on training-induced increase in CK (creatine kinase (CK)): significantly attenuated the increase in CK
CK (creatine kinase (CK); week 0 (baseline)): 158 ± 16 IU/L
CK (creatine kinase (CK); week 1): 322 ± 35 IU/L
CK (creatine kinase (CK); week 4): 280 ± 22 IU/L
CK (creatine kinase (CK); week 8): 255 ± 28 IU/L
CK (creatine kinase (CK); week 9 (overreaching)): 288 ± 18 IU/L
CK (creatine kinase (CK); week 10 (overreaching)): 250 ± 14 IU/L
CK (creatine kinase (CK); week 12): 147 ± 15 IU/L
24 h 3MH:Cr (urinary 3-MH:Cr ratio; week 0 (baseline)): 0.127 ± 0.004 μmol:mg
24 h 3MH:Cr (urinary 3-MH:Cr ratio; week 1): 0.122 ± 0.002 μmol:mg
24 h 3MH:Cr (urinary 3-MH:Cr ratio; week 8): 0.124 ± 0.008 μmol:mg
24 h 3MH:Cr (urinary 3-MH:Cr ratio; week 9 (overreaching)): 0.120 ± 0.003 μmol:mg
24 h 3MH:Cr (urinary 3-MH:Cr ratio; week 10 (overreaching)): 0.141 ± 0.004 μmol:mg
effect on free testosterone (free testosterone): no main effect differences
Free Testosterone (free testosterone; week 0 (baseline)): 109 ± 10 ng/dL
Free Testosterone (free testosterone; week 1): 104 ± 8 ng/dL
Free Testosterone (free testosterone; week 4): 116 ± 11 ng/dL
Free Testosterone (free testosterone; week 8): 115 ± 9 ng/dL
Free Testosterone (free testosterone; week 9 (overreaching)): 118 ± 8 ng/dL
Free Testosterone (free testosterone; week 10 (overreaching)): 116 ± 8 ng/dL
Free Testosterone (free testosterone; week 12): 127 ± 8 ng/dL
effect on total testosterone (total testosterone): no main effect differences
Total Testosterone (total testosterone; week 0 (baseline)): 708 ± 35 ng/dL
Total Testosterone (total testosterone; week 1): 708 ± 48 ng/dL
Total Testosterone (total testosterone; week 4): 730 ± 63 ng/dL
Total Testosterone (total testosterone; week 8): 652 ± 35 ng/dL
Total Testosterone (total testosterone; week 9 (overreaching)): 752 ± 61 ng/dL
Total Testosterone (total testosterone; week 10 (overreaching)): 701 ± 34 ng/dL
Total Testosterone (total testosterone; week 12): 728 ± 39 ng/dL
effect on PRS (resistance-trained males [3]): improved PRS
PRS (perceived recovery score) (resistance-trained males [3]; week 0 (baseline)): 9.1 ± 0.3
PRS (perceived recovery score) (resistance-trained males [3]; week 1): 6.3 ± 0.3
PRS (perceived recovery score) (resistance-trained males [3]; week 4): 7.6 ± 0.3
PRS (perceived recovery score) (resistance-trained males [3]; week 8): 8.5 ± 0.3
PRS (perceived recovery score) (resistance-trained males [3]; week 9 (overreaching)): 8.0 ± 0.2
PRS (perceived recovery score) (resistance-trained males [3]; week 10 (overreaching)): 7.7 ± 0.2
PRS (perceived recovery score) (resistance-trained males [3]; week 12): 9.5 ± 0.2
Wingate PP gains in power from baseline (resistance-trained males [4]): 10.2±1.6%
Wingate PP decrease (resistance-trained males [4]): 0.3±0.9%

Nc1ncnc2c1ncn2[C@@H]1O[C@H](COP(=O)(O)OP(=O)(O)OP(=O)(O)O)[C@@H](O)[C@H]1O [ATP, Adenosine-5′-triphosphate]
Lean body mass increase (resistance-trained males [1]; 12-week study): 4.0 ± 0.4 kg
DXA Fat (resistance-trained males [1]; week 0 (baseline)): 19.5 ± 1.8%
DXA LBM (resistance-trained males [1]; week 0 (baseline)): 67.7 ± 2.0 kg
Weight (resistance-trained males [1]; week 0 (baseline)): 85.7 ± 1.7 kg
DXA Fat (resistance-trained males [1]; week 4): 18.1 ± 1.8%
DXA LBM (resistance-trained males [1]; week 4): 70.1 ± 1.9 kg
Weight (resistance-trained males [1]; week 4): 86.9 ± 2.0 kg
DXA Fat (resistance-trained males [1]; week 8): 16.6 ± 1.6%
DXA LBM (resistance-trained males [1]; week 8): 71.4 ± 2.0 kg
Weight (resistance-trained males [1]; week 8): 87.0 ± 2.0 kg
DXA Fat (resistance-trained males [1]; week 12): 16.0 ± 1.5%
DXA LBM (resistance-trained males [1]; week 12): 71.7 ± 1.9 kg
Weight (resistance-trained males [1]; week 12): 87.0 ± 2.1 kg
12-week increases in quadriceps thicknesses (resistance-trained males [2]): 4.9±1.0 mm
Quad (quadriceps muscle thickness) (resistance-trained males [2]; week 0 (baseline)): 50.9 ± 0.9 mm
Quad (quadriceps muscle thickness) (resistance-trained males [2]; week 4): 53.4 ± 1.3 mm
Quad (quadriceps muscle thickness) (resistance-trained males [2]; week 8): 54.8 ± 1.7 mm
Quad (quadriceps muscle thickness) (resistance-trained males [2]; week 12): 55.8 ± 1.8 mm
effect on training-induced increase in CK (creatine kinase (CK)): did not attenuate the increases in CK
CK (creatine kinase (CK); week 0 (baseline)): 145 ± 8 IU/L
CK (creatine kinase (CK); week 1): 500 ± 71 IU/L
CK (creatine kinase (CK); week 4): 324 ± 14 IU/L
CK (creatine kinase (CK); week 8): 234 ± 32 IU/L
CK (creatine kinase (CK); week 9 (overreaching)): 426 ± 44 IU/L
CK (creatine kinase (CK); week 10 (overreaching)): 449 ± 62 IU/L
CK (creatine kinase (CK); week 12): 160 ± 20 IU/L
24 h 3MH:Cr (urinary 3-MH:Cr ratio; week 0 (baseline)): 0.136 ± 0.008 μmol:mg
24 h 3MH:Cr (urinary 3-MH:Cr ratio; week 1): 0.127 ± 0.007 μmol:mg
24 h 3MH:Cr (urinary 3-MH:Cr ratio; week 8): 0.143 ± 0.007 μmol:mg
24 h 3MH:Cr (urinary 3-MH:Cr ratio; week 9 (overreaching)): 0.143 ± 0.008 μmol:mg
24 h 3MH:Cr (urinary 3-MH:Cr ratio; week 10 (overreaching)): 0.131 ± 0.012 μmol:mg
effect on free testosterone (free testosterone): no main effect differences
Free Testosterone (free testosterone; week 0 (baseline)): 112 ± 13 ng/dL
Free Testosterone (free testosterone; week 1): 114 ± 9 ng/dL
Free Testosterone (free testosterone; week 4): 118 ± 6 ng/dL
Free Testosterone (free testosterone; week 8): 117 ± 11 ng/dL
Free Testosterone (free testosterone; week 9 (overreaching)): 108 ± 7 ng/dL
Free Testosterone (free testosterone; week 10 (overreaching)): 110 ± 10 ng/dL
Free Testosterone (free testosterone; week 12): 125 ± 13 ng/dL
effect on total testosterone (total testosterone): no main effect differences
Total Testosterone (total testosterone; week 0 (baseline)): 660 ± 67 ng/dL
Total Testosterone (total testosterone; week 1): 645 ± 54 ng/dL
Total Testosterone (total testosterone; week 4): 695 ± 60 ng/dL
Total Testosterone (total testosterone; week 8): 645 ± 60 ng/dL
Total Testosterone (total testosterone; week 9 (overreaching)): 621 ± 49 ng/dL
Total Testosterone (total testosterone; week 10 (overreaching)): 592 ± 84 ng/dL
Total Testosterone (total testosterone; week 12): 673 ± 69 ng/dL
effect on PRS (resistance-trained males [3]): improved PRS scores after the overreaching cycle at weeks 10 and 12
PRS (perceived recovery score) (resistance-trained males [3]; week 0 (baseline)): 9.6 ± 0.2
PRS (perceived recovery score) (resistance-trained males [3]; week 1): 4.9 ± 0.4
PRS (perceived recovery score) (resistance-trained males [3]; week 4): 7.5 ± 0.3
PRS (perceived recovery score) (resistance-trained males [3]; week 8): 8.2 ± 0.3
PRS (perceived recovery score) (resistance-trained males [3]; week 9 (overreaching)): 5.5 ± 0.4
PRS (perceived recovery score) (resistance-trained males [3]; week 10 (overreaching)): 5.5 ± 0.4
PRS (perceived recovery score) (resistance-trained males [3]; week 12): 8.6 ± 0.4
Wingate PP gains in power from baseline (resistance-trained males [4]): 9.0±1.6%
Wingate PP decrease (resistance-trained males [4]): 2.9±0.7%

From patent publication US10888576B2, “Composition of HMB and ATP and methods of use” (Metabolic Technologies, Inc., priority 2018, dated 2021)
